The source of these data is paper PMC6801739, “Antitumor Activity of a Novel Tyrosine Kinase Inhibitor AIU2001 Due to Abrogation of the DNA Damage Repair in Non-Small Cell Lung Cancer Cells” (International Journal of Molecular Sciences, 2019).

One data set deals with A549 cells. Nature of the data set: γ-H2AX immunofluorescence foci assay. To be noted: 5 μM. It counts as cell-based, human. Here is the method: (§1) For γ-H2AX and 4′,6-diamidino-2-phenylindole (DAPI) staining, cells were fixed in 4% paraformaldehyde for 15 min at room temperature and permeabilized with 0.1% Triton X-100 in PBS for 20 min. The cells were then incubated with 1:200 dilution of anti-phosho-H2AX (Ser139) antibody overnight at 4 °C. AlexaFluor 594-conjugated anti-mouse IgG antibody (Abcam, Cambridge, UK) was used at 1:400 dilution for 1 h at room temperature. The slides were mounted in mounting medium (DAKO, Santa Clara, CA, USA) with DAPI (ThermoFisher Scientific) before imaging. Images were acquired using an LSM880 laser scanning microscope (ZEISS, Jena, Germany). Fluorescent images were captured using the appropriate filters. Images were analyzed using the Image J and ZEN software.

The subject of data set [1] is H1299 cells. Nature of the data set: γ-H2AX immunofluorescence foci assay. It counts as cell-based, human. To be noted: 5 μM. Here is the method:
as §1

The test system of data set [2] is H1299 cells. In words: Immunoblot of phospho-STAT5. Type of data set: cell-based, human. As to the method:
Cell lysates were prepared by extracting proteins with TNN buffer (40 mM Tris-Cl pH 8.0, 0.2% NP-40, 120 mM NaCl) or radioimmunoprecipitation assay (RIPA) lysis buffer (Millipore, Billerica MA, USA) supplemented with a protease inhibitor cocktail (Thermo Fisher Scientific, Rockford, IL, USA). Equal amounts of proteins were separated using SDS-PAGE on 8–13% gels, and transferred to nitrocellulose membranes (Bio-Rad, Hercules, CA, USA). The membranes were blocked with 5% skim milk in Tris-buffered saline-Tween 20 (TBST) (150 mM NaCl, 10 mM Tris, 0.2% Tween20), followed by overnight incubation with primary antibodies at 4 °C. The blots were developed using peroxidase-conjugated secondary antibody and the immunoreactive proteins were visualized using enhanced chemiluminescence (ECL) reagents, according to the manufacturer’s recommendations (Amersham, GE Healthcare, Buckingamshire, UK). The protein bands were visualized using a digital imaging system (ImageQuant LAS 4000 mini; GE Healthcare, UK). The protein levels were analyzed using Image J software (National Institutes of Health, Bethesda, MD, USA). Experiments were repeated at least thrice.
For orientation: In western blotting, separated proteins are transferred to a membrane and probed.

Another data set addresses T1, ZAP-70 (Homo sapiens, UniProt P43403).
T1 construct: purchased Eurofins Pharma Discovery (KinaseProfiler); IC50 values by Reaction Biology Corp
Nature of the data set: Kinase profiling at 10 μM (Eurofins). It counts as biochemical. To be noted: read-out: Inhibitory activity.

The target of another data set is T2, c-KIT (Homo sapiens, UniProt P10721).
T2 construct: purchased Eurofins Pharma Discovery (KinaseProfiler); IC50 values by Reaction Biology Corp
In words: In vitro kinase assay, IC50 (Reaction Biology Corp.). Type of data set: biochemical.

Another data set has as its target T3, PI3 Kinase (p110a/p85a) (Homo sapiens, UniProt P42336).
T3 construct: purchased Eurofins Pharma Discovery (KinaseProfiler); IC50 values by Reaction Biology Corp
In words: Kinase profiling at 10 μM (Eurofins). To be noted: read-out: Inhibitory activity. It counts as biochemical.

In another data set the target is T4, TGFBR1 (Homo sapiens, UniProt P36897).
T4 construct: purchased Eurofins Pharma Discovery (KinaseProfiler); IC50 values by Reaction Biology Corp
Nature of the data set: Kinase profiling at 10 μM (Eurofins). Type of data set: biochemical. To be noted: read-out: Inhibitory activity.

In a further data set the target is T5, FLT4 (Homo sapiens, UniProt P35916).
T5 construct: purchased Eurofins Pharma Discovery (KinaseProfiler); IC50 values by Reaction Biology Corp
Nature of the data set: In vitro kinase assay, IC50 (Reaction Biology Corp.). It counts as biochemical.

Another data set deals with T6, CK2 (Homo sapiens, UniProt P68400).
T6 construct: purchased Eurofins Pharma Discovery (KinaseProfiler); IC50 values by Reaction Biology Corp
Nature of the data set: Kinase profiling at 10 μM (Eurofins). It counts as biochemical. To be noted: read-out: Inhibitory activity.

A further data set deals with A549 xenografts. In words: A549 tumor xenograft mouse model. It counts as in vivo, BALB/c nu/nu mice. To be noted: 20 mg/kg i.p. once per two or three days, five times. As to the method:
We next determined whether the antitumor effect associated with in vitro AIU2001 treatment could be translated into an in vivo xenograft mouse model. Mice were subcutaneously (s.c.) implanted with A549 cells in the right hind leg. When the tumors were palpable (average […]: 150 mm^3; 14days post-implantation), mice were intraperitoneally (i.p.) administered 20 mg/kg AIU2001 or DMSO once per two or three days for five times in total. […] At necropsy, the average tumor weight of mice treated with AIU2001 or DMSO was 1.2 g or 2.8 g, respectively (Figure 2B,C).
Figure 2 AIU2001 inhibited tumor growth of A549 xenografts in nude mice. (A) A549 cells were s.c. injected into the thigh of the right hind leg of BALB/c nu/nu mice (n = 4/group). Two weeks after tumor cell injection, AIU2001 (20 mg/kg) or DMSO was administered (i.p.) once per two or three days for five times in total. The longest (L) and shortest (W) tumor axes were measured, and tumor volume (mm^3) was calculated as L × W^2/2. The data shown represent the average tumor volume (* p < 0.05). (B) The weight of the resected tumors was measured at the end of the experiment (*** p < 0.001). (C) Image of resected tumors from mice. (D) The body weights of A549 tumor xenograft mice were determined twice weekly during the experiments.
A549 human lung cancer cell xenografts were initially established by s.c. implanting 1 × 10^6 cultured cells into the thigh of the right hind leg of six week old mice. When tumor volumes had reached approximately 150 mm^3, AIU2001 ([…]) was administered i.p. once per two or three days for five times in total. All animal experiments were reviewed and approved by the Institutional Animal Care & Use Committee of Korea Institute of Radiological and Medical Sciences (kirams2018-0063, 6 December 2018).
Two axes of the tumor (L, longest axis; W, shortest axis) were measured twice per week after irradiation using Vernier calipers. Tumor volume was calculated as (L × W^2)/2 (mm^3).

The target in another data set is T7, c-KIT (V560G) (Homo sapiens, UniProt P10721, V560G).
T7 construct: purchased Eurofins Pharma Discovery (KinaseProfiler); IC50 values by Reaction Biology Corp
In words: In vitro kinase assay, IC50 (Reaction Biology Corp.). It counts as biochemical.

The target in a further data set is T8, CDK2/cyclinA (Homo sapiens, UniProt P24941).
T8 construct: purchased Eurofins Pharma Discovery (KinaseProfiler); IC50 values by Reaction Biology Corp
In words: Kinase profiling at 10 μM (Eurofins). It counts as biochemical. To be noted: read-out: Inhibitory activity.

A further data set addresses T9, FGFR2 (Homo sapiens, UniProt P21802).
T9 construct: purchased Eurofins Pharma Discovery (KinaseProfiler); IC50 values by Reaction Biology Corp
Nature of the data set: Kinase profiling at 10 μM (Eurofins). Type of data set: biochemical. To be noted: read-out: Inhibitory activity.

T9 sequence (P21802 22-821): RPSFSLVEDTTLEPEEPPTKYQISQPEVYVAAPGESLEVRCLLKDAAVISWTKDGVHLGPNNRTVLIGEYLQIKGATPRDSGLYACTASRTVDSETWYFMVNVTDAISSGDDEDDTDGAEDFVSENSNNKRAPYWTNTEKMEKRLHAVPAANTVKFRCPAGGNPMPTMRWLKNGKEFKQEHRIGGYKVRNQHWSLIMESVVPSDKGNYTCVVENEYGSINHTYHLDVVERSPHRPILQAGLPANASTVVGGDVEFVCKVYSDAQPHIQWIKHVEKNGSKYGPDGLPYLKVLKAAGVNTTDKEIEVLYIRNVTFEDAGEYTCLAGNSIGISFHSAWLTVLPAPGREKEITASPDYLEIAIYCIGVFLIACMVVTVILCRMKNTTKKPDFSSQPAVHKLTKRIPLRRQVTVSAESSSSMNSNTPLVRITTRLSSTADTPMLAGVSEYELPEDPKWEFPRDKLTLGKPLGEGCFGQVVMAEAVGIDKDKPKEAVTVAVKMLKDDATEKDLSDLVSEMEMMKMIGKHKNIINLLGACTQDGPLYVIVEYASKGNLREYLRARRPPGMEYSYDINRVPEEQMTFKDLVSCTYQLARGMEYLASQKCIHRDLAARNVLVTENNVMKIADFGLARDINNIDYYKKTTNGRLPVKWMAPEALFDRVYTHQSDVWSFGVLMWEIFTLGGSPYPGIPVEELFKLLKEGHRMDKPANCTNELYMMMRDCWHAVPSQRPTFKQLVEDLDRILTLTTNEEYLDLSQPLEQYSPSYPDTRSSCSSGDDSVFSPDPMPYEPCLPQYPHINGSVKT
T3 sequence (P42336 whole entry): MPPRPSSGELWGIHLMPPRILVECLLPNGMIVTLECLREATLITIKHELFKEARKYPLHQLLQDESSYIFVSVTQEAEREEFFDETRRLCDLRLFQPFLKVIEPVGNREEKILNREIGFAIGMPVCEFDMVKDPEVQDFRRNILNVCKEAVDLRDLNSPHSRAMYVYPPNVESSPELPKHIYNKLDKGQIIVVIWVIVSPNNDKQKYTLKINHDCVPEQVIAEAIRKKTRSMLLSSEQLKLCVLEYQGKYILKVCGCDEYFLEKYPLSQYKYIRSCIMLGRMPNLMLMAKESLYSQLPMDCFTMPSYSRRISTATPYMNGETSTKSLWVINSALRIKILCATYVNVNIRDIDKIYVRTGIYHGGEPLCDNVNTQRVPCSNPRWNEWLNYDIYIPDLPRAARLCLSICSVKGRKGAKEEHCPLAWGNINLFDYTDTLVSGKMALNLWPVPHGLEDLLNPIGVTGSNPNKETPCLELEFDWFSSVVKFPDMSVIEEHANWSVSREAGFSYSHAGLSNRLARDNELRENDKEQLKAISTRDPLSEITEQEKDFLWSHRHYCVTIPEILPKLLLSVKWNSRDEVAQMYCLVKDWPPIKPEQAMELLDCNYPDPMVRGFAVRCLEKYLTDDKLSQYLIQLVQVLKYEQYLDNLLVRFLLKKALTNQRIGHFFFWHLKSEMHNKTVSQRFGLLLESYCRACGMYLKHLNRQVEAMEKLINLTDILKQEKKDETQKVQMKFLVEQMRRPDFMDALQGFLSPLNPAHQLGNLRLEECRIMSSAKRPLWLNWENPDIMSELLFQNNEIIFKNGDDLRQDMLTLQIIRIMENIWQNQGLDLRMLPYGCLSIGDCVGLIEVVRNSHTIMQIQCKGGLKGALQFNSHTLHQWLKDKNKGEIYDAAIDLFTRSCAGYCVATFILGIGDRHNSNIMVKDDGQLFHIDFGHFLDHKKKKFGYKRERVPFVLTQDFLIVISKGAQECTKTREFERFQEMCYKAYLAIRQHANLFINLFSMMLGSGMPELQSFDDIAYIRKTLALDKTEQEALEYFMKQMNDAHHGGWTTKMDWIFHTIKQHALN
T3 sequence (P27986 whole entry partner): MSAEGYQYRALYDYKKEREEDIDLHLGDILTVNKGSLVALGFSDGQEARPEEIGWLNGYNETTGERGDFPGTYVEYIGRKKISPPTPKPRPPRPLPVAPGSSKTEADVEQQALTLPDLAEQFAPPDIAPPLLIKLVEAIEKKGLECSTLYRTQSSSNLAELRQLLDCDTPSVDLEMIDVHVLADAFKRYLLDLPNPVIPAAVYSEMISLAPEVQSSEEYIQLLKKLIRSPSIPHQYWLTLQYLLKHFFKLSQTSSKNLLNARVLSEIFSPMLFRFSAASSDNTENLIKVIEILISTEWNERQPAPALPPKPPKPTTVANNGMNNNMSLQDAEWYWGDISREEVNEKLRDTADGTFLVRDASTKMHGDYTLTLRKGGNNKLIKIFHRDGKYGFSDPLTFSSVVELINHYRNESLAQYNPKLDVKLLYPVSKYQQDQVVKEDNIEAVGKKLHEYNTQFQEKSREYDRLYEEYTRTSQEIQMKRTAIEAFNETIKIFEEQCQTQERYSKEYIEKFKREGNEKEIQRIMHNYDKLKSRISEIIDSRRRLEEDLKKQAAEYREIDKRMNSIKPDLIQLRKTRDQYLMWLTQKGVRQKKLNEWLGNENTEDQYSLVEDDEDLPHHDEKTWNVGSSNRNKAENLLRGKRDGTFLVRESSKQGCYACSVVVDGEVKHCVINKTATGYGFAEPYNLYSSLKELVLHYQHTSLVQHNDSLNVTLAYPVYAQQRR
T2 sequence (P10721 26-976): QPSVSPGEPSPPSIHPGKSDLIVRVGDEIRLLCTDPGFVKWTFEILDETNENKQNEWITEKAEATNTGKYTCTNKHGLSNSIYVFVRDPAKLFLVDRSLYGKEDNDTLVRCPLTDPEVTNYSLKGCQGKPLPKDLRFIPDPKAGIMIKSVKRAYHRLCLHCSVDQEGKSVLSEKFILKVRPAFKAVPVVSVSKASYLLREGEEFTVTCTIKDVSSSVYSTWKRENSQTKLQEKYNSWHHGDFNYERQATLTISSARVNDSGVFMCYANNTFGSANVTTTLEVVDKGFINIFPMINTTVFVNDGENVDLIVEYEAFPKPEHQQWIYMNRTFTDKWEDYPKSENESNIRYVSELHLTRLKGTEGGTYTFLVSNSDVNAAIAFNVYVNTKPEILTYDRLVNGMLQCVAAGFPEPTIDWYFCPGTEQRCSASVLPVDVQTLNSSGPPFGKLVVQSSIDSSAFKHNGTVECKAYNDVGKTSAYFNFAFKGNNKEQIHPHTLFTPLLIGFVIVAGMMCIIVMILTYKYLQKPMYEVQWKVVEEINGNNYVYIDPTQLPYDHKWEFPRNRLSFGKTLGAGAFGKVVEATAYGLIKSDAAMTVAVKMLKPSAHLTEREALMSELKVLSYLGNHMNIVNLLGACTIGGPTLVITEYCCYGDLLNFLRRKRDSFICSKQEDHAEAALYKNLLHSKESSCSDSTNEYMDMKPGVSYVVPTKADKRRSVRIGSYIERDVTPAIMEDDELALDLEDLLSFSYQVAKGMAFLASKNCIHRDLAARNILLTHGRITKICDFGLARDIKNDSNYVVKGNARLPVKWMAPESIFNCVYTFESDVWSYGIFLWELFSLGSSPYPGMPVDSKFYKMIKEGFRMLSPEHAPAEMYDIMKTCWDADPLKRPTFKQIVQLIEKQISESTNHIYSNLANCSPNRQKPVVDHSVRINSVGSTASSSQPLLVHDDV
T7 sequence (P10721 26-976 V560G): as the sequence (P10721 26-976) above, with V535G counted along it
T5 sequence (P35916 25-1363): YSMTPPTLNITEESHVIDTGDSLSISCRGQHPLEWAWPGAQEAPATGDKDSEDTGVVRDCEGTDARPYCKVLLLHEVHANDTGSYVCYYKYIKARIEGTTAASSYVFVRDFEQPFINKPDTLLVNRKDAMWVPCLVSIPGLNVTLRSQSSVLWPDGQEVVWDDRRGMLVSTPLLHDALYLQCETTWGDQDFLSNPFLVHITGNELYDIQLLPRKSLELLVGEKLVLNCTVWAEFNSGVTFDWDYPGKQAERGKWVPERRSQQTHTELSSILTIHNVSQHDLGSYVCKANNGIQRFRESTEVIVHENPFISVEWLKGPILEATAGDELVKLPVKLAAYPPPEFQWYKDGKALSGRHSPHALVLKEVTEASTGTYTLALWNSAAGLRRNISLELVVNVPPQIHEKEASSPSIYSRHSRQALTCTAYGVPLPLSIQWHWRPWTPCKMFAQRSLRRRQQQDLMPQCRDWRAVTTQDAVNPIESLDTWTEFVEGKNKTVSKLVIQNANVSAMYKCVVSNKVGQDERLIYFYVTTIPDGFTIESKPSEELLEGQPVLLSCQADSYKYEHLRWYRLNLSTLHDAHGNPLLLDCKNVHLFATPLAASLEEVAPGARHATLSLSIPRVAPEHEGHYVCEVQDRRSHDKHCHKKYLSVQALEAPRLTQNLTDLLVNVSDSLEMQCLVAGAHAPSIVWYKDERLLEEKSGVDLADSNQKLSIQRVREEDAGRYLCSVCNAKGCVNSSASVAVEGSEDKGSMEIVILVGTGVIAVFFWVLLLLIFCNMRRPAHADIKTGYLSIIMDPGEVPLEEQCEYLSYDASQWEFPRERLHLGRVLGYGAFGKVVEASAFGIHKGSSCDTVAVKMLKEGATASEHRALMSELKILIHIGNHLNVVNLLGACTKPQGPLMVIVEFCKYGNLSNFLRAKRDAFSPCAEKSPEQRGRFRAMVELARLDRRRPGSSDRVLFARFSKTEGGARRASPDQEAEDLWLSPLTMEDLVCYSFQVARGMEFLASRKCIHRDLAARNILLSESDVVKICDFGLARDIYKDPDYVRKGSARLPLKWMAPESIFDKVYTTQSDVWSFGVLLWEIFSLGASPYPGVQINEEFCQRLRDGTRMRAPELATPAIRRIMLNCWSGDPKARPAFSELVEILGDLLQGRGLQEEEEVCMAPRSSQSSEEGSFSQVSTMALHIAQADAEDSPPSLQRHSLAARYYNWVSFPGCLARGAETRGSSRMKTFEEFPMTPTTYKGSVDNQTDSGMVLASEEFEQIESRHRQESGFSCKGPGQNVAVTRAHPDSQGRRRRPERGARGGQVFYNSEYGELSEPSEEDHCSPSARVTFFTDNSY

The IC50 is the midpoint of a concentration-inhibition curve. In the case of `Brc1ccc(-c2cnc(Nc3cccc4ccccc34)o2)cc1` [AIU2001, 5-(4-bromophenyl)-N-(naphthalen-1-yl) oxazol-2-amine], the γ-H2AX foci entry in the data set on A549 cells and in the data set with H1299 cells [1] was “high levels of γ-H2AX foci” throughout. In addition, the “Phosphorylated STAT5” value in the data set on H1299 cells [2] is listed as “inhibited phosphorylated STAT5”. The inhibition at 10 µM is 0% on ZAP-70; 7% at PI3 Kinase (p110a/p85a); 12% on TGFBR1; 10% on CK2; 39% at CDK2/cyclinA; 1% at FGFR2. Further, the IC50 on c-KIT is 223 nM; against FLT4, 786 nM; at c-KIT (V560G) it was 53.4 nM. Further, the “Average tumor weight at necropsy” value in the data set on A549 xenografts came to 1.2 g. Further, the “Body weight versus control mice” value in the data set on A549 xenografts was “did not differ”. Moreover, the “Inhibition of tumor growth compared to the vehicle” value with A549 xenografts turned out to be 48.3%.
